Test results from paper PMC6892409, “Phenotypic proteomic profiling identifies a landscape of targets for circadian clock–modulating compounds” (Life Science Alliance, 2019).
Like-named read-outs stand apart in the source and are kept apart here.

How the values were obtained:
[1] = biological target: Rab GTPase-binding effector protein 1 (RABEP1) (Homo sapiens, UniProt Q15276); assay: TPP in intact U2OS cells; conditions: vs vehicle
[2] = biological target: T1, ERK2/MAPK1 (Homo sapiens, UniProt P28482); assay: Radiometric HotSpot kinase assay; type: biochemical; conditions: 100 μM, n = 3; remaining activity vs DMSO; read-out: Enzyme activity (%) ERK2/MAPK1
T1 construct: purchased Reaction Biology
Procedure: (§1) In brief, specific kinase/substrate pairs were mixed in a buffer containing 20 mM Hepes (pH 7.5), 10 mM MgCl2, 1 mM EGTA, 0.02% Brij35, 0.02 mg/ml BSA, 0.1 mM Na3VO4, 2 mM DTT, and 1% DMSO. […] After a 20-min incubation, ATP (cat. no. A7699; Sigma-Aldrich) and [γ-^33P] ATP (cat. no. NEG602H001MC; PerkinElmer) were added at a final total concentration of […].

[3] = biological target: T2, MST4/STK26 (Homo sapiens, UniProt Q9P289); assay: Radiometric HotSpot kinase assay; type: biochemical; conditions: 100 μM, n = 3; remaining activity vs DMSO; read-out: Enzyme activity (%) MST4/STK26
T2 construct: purchased Reaction Biology
Procedure: as §1

[4] = biological target: T3, TNIK (Homo sapiens, UniProt Q9UKE5); assay: Radiometric HotSpot kinase assay; type: biochemical
T3 construct: purchased Reaction Biology
Procedure: as §1

[5] = biological target: T4, CK2a (Homo sapiens, UniProt P68400); assay: Radiometric HotSpot kinase assay; type: biochemical; conditions: 100 μM, n = 3; remaining activity vs DMSO; read-out: Enzyme activity (%) CK2a
T4 construct: purchased Reaction Biology
Procedure: as §1

[6] = biological target: T5, CDK7 (Homo sapiens, UniProt P50613); assay: Radiometric HotSpot kinase assay; type: biochemical; conditions: 100 μM, n = 3; remaining activity vs DMSO; read-out: Enzyme activity (%) CDK7
T5 construct: purchased Reaction Biology
Procedure: as §1

[7] = biological target: T6, ERK1/MAPK3 (Homo sapiens, UniProt P27361); assay: Radiometric HotSpot kinase assay; type: biochemical; conditions: 100 μM, n = 3; remaining activity vs DMSO; read-out: Enzyme activity (%) ERK1/MAPK3
T6 construct: purchased Reaction Biology
Procedure: as §1

[8] = biological target: T7, CAMK2d (Homo sapiens, UniProt Q13557); assay: Radiometric HotSpot kinase assay; type: biochemical; conditions: 100 μM, n = 3; remaining activity vs DMSO; read-out: Enzyme activity (%) CAMK2d
T7 construct: purchased Reaction Biology
Procedure: as §1

[9] = biological target: T8, CK1d (Homo sapiens, UniProt P48730); assay: Radiometric HotSpot kinase assay; type: biochemical; conditions: n = 3, remaining activity vs DMSO, read-out: Enzyme activity (%) CK1d
T8 construct: purchased Reaction Biology
Procedure: as §1

[10] = biological target: T9, CDK2 (Homo sapiens, UniProt P24941); assay: Radiometric HotSpot kinase assay; type: biochemical; conditions: n = 3, remaining activity vs DMSO, read-out: Enzyme activity (%) CDK2
T9 construct: purchased Reaction Biology
Procedure: as §1

[11] = tested on: Synechococcus elongatus; assay: Luminescence rhythm period assay in cyanobacteria; conditions: 3, 8, 16 and 32 μM
Procedure: The D730nm was maintained between 0.27 and 0.45 by dilution with fresh medium.
Circadian period–altering compounds (dissolved in DMSO, final 0.5% DMSO) were then added in the air medium to reach the different desired concentrations. […] Images were generated from integrated photon counts over 25 min every 30 min using Metamorph software (Molecular Devices). […] Exported images were composed into image stacks and were quantified in a time series using a custom script in NIH ImageJ software, applying the “Multi Measure” plugin.

[12] = biological target: TNS1 (Homo sapiens, UniProt Q9HBL0); assay: TPP in intact U2OS cells; type: binding; conditions: vs vehicle
[13] = biological target: PSMG4 (Homo sapiens, UniProt Q5JS54); assay: TPP in intact U2OS cells; type: binding; conditions: vs vehicle
[14] = biological target: F-box protein 21 (FBX21) (Homo sapiens, UniProt O94952); assay: TPP in intact U2OS cells; type: binding; conditions: vs vehicle
[15] = biological target: NFU1 (Homo sapiens, UniProt Q9UMS0); assay: TPP in intact U2OS cells; type: binding; conditions: vs vehicle
[16] = biological target: DYNC1I2 (Homo sapiens, UniProt Q13409); assay: TPP in intact U2OS cells; type: binding; conditions: vs vehicle
[17] = biological target: SARS2 (Homo sapiens, UniProt Q9NP81); assay: TPP in intact U2OS cells; type: binding
[18] = biological target: RPL37 (Homo sapiens, UniProt P61927); assay: TPP in intact U2OS cells; type: binding; conditions: vs vehicle
[19] = biological target: Cleavage stimulation factor subunit 2 tau variant (CSTF2T) (Homo sapiens, UniProt Q9H0L4); assay: TPP in intact U2OS cells; type: binding; conditions: vs vehicle
[20] = biological target: CYCS (Homo sapiens, UniProt P99999); assay: TPP in intact U2OS cells; type: binding; conditions: vs vehicle
[21] = tested on: Per2-dLuc U2OS cells; assay: Circadian luminescence period assay, Per2-dLuc U2OS cells; type: cell-based, human; conditions: 7 μM, mean ± SEM, control 24.2 ± […]
Procedure: Per2-dLuc U2OS osteosarcoma and Bmal1-dLuc U2OS osteosarcoma reporter cell lines were gifts from Dr Andrew Liu, University of Memphis, USA ([Liu et al, 2008]). […] The cells were cultured at 37°C, 5% CO2 in a standard humidified incubator.

Sequence of SARS2 (Q9NP81 35-518): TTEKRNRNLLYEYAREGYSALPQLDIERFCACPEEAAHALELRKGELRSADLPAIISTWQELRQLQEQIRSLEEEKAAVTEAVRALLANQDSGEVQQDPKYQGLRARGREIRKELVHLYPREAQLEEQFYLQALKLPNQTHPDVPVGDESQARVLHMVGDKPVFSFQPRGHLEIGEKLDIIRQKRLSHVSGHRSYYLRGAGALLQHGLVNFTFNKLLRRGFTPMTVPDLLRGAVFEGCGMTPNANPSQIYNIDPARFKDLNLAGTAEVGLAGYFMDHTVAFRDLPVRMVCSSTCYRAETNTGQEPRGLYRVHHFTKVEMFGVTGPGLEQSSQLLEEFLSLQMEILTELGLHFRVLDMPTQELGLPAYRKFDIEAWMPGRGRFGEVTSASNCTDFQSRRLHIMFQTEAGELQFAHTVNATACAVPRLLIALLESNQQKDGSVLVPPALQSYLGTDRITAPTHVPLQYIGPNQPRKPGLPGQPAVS
Sequence of F-box protein 21 (FBX21) (O94952 whole entry): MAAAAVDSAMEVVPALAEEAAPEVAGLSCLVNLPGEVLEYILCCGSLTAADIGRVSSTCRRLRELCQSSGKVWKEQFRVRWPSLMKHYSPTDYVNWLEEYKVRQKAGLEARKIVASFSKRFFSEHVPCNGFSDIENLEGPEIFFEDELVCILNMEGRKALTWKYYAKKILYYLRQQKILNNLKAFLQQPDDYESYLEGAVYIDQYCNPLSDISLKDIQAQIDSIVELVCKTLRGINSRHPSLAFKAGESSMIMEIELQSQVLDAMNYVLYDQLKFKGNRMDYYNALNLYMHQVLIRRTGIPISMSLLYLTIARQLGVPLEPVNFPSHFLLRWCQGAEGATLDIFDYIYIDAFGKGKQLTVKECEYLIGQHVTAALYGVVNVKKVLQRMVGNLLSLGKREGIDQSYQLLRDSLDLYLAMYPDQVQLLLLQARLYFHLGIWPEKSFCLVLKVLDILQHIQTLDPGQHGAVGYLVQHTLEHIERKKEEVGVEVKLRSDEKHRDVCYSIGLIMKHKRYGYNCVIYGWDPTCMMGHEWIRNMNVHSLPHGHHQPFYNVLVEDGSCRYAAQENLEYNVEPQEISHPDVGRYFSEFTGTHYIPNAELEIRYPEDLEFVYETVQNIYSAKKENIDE
Sequence of TNS1 (Q9HBL0 whole entry): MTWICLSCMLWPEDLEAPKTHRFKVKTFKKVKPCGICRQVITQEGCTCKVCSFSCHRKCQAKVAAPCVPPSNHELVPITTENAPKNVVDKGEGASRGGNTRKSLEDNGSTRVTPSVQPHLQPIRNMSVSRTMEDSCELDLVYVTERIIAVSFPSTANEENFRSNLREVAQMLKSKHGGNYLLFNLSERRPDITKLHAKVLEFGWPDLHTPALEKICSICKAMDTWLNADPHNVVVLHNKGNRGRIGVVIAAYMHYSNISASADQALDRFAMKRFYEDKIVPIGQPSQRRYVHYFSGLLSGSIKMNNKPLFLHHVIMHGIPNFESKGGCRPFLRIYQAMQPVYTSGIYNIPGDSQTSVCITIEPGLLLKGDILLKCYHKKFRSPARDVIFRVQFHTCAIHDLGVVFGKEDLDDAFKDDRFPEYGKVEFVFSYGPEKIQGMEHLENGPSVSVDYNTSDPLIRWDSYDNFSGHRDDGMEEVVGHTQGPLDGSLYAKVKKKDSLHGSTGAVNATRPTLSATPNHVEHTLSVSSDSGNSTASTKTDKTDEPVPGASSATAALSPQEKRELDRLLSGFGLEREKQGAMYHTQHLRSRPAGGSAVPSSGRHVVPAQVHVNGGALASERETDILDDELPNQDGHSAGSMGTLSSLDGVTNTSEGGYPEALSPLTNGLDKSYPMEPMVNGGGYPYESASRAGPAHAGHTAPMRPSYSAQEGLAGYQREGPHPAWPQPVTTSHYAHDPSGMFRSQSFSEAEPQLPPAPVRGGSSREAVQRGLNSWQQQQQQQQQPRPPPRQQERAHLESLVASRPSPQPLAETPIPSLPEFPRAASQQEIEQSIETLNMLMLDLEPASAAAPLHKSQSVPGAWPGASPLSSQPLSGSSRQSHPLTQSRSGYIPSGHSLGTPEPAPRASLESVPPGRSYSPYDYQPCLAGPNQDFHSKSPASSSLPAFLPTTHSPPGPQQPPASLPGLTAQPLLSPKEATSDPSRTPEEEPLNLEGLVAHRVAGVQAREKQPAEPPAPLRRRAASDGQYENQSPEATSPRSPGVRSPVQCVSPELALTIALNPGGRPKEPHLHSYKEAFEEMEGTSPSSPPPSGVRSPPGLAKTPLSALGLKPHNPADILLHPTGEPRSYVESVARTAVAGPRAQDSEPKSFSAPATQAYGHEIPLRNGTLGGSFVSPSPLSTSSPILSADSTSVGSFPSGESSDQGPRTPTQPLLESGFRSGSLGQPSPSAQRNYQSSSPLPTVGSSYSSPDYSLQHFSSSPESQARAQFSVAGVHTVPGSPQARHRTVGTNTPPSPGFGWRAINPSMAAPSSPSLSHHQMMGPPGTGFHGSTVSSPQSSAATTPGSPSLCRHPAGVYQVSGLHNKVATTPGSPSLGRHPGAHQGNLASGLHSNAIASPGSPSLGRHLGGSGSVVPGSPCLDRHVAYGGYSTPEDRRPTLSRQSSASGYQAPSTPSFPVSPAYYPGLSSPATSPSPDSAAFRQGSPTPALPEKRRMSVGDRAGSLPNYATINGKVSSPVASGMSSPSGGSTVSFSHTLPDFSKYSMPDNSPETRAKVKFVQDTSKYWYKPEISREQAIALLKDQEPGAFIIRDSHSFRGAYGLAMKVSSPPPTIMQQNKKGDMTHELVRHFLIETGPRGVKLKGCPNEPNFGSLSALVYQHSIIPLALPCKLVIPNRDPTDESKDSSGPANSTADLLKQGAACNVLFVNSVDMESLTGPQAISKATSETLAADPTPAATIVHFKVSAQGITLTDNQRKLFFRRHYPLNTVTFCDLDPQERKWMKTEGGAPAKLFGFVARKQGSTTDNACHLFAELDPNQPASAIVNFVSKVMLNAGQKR
T3 sequence (Q9UKE5 whole entry): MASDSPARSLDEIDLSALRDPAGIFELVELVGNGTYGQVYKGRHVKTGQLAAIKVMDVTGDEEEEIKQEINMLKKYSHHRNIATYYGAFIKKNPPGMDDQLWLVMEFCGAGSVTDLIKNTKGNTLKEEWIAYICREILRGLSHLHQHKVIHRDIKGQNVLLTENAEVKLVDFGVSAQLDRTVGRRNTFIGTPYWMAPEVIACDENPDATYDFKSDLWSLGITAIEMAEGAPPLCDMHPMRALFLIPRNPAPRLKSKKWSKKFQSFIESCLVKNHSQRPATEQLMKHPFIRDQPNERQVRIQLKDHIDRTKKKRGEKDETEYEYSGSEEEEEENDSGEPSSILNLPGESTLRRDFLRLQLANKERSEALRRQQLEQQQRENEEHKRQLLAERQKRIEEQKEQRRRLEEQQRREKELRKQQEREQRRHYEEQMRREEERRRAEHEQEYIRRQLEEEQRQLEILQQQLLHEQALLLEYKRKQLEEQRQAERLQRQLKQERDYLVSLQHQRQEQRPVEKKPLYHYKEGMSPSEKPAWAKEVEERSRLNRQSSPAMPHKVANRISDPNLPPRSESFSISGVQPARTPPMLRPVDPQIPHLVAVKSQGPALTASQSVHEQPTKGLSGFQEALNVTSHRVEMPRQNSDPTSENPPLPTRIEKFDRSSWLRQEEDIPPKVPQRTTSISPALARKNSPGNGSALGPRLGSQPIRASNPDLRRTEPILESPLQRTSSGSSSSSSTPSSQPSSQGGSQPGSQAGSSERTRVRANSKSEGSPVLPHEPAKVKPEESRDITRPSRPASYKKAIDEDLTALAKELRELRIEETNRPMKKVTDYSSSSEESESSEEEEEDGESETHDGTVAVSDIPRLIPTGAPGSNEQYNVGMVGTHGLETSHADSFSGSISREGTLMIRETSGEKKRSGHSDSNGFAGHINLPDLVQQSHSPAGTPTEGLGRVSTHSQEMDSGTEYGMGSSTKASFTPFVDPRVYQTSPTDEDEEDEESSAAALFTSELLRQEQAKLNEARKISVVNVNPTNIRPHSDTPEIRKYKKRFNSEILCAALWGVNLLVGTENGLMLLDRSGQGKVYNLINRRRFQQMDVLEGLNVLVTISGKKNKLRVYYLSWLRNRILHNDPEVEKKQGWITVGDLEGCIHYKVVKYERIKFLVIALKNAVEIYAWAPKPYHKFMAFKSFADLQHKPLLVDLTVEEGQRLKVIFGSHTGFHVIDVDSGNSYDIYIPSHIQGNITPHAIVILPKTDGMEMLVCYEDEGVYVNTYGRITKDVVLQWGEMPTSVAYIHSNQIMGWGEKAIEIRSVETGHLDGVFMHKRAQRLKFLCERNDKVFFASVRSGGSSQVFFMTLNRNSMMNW
Sequence of NFU1 (Q9UMS0 10-254): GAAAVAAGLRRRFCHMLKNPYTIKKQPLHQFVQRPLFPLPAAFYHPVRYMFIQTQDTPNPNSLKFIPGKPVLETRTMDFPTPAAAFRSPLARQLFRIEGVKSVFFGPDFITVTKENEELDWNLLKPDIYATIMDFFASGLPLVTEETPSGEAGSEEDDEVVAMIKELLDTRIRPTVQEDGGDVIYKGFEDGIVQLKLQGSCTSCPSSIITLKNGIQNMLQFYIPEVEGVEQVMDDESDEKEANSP
Sequence of CYCS (P99999 whole entry): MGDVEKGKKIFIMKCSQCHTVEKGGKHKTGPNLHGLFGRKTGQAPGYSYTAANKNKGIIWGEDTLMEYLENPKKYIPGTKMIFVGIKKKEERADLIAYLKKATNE
Sequence of PSMG4 (Q5JS54 whole entry): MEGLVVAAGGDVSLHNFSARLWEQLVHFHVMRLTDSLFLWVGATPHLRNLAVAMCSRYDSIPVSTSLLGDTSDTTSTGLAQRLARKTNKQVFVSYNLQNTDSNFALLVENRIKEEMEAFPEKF

Oc1c2ccccc2c2c3c(cccc13)N=N2 [SP600125]
ΔTm at 10 µM ([1]; Rep1, read-out: + Tm shift RABEP1, Rep1): 3.5 °C
ΔTm at 10 µM ([1]; Rep2, read-out: + Tm shift RABEP1, Rep2): 4.4 °C
remaining activity at 100 µM [2]: 70.7%
remaining activity at 100 µM [3]: 14.4%
remaining activity at 100 µM ([4]; 100 μM, n = 3, remaining activity vs DMSO, read-out: Enzyme activity (%) TNIK): 1.1%
IC50 ([4]; 10-dose, threefold serial dilution starting at 100 μM): < 500 nM
remaining activity at 100 µM [5]: 5.7%
remaining activity at 100 µM [6]: 13.2%
remaining activity at 100 µM [7]: 76.7%
remaining activity at 100 µM [8]: 14.7%
remaining activity at 100 µM [9]: 0.9%
remaining activity at 100 µM [10]: 5.3%
Effect on period length in cyanobacteria [11]: do not affect period length
ΔTm at 10 µM ([12]; Rep1, read-out: + Tm shift TNS1, Rep1): 1.1 °C
ΔTm at 10 µM ([12]; Rep2, read-out: + Tm shift TNS1, Rep2): 1.6 °C
ΔTm at 10 µM ([13]; Rep1, read-out: + Tm shift PSMG4, Rep1): 3.4 °C
ΔTm at 10 µM ([13]; Rep2, read-out: + Tm shift PSMG4, Rep2): 3.5 °C
ΔTm at 10 µM ([14]; Rep1, read-out: + Tm shift FBX21, Rep1): 3.2 °C
ΔTm at 10 µM ([14]; Rep2, read-out: + Tm shift FBX21, Rep2): 2.3 °C
ΔTm at 10 µM ([15]; Rep1, read-out: + Tm shift NFU1, Rep1): 1.3 °C
ΔTm at 10 µM ([15]; Rep2, read-out: + Tm shift NFU1, Rep2): 1.2 °C
ΔTm at 10 µM ([16]; Rep1, read-out: + Tm shift DYNC1I2, Rep1): 2.5 °C
ΔTm at 10 µM ([16]; Rep2, read-out: + Tm shift DYNC1I2, Rep2): 0.8 °C
ΔTm at 10 µM ([17]; read-out: + Tm shift SARS2, Rep1): 1.2 °C
ΔTm at 10 µM ([17]; read-out: + Tm shift SARS2, Rep2): 1.3 °C
ΔTm at 10 µM ([18]; Rep1, read-out: + Tm shift RPL37, Rep1): 2.9 °C
ΔTm at 10 µM ([18]; Rep2, read-out: + Tm shift RPL37, Rep2): 2.1 °C
ΔTm at 10 µM ([19]; Rep1, read-out: + Tm shift CSTF2T, Rep1): 1.3 °C
ΔTm at 10 µM ([19]; Rep2, read-out: + Tm shift CSTF2T, Rep2): 1.8 °C
ΔTm at 10 µM ([20]; Rep1, read-out: + Tm shift CYCS, Rep1): 1 °C
ΔTm at 10 µM ([20]; Rep2, read-out: + Tm shift CYCS, Rep2): 1 °C
Circadian period length [21]: 28.6 ± 0.1 h
